These results are taken from PMC7170299, “Design, synthesis, molecular modelling and biological evaluation of novel 3-(2-naphthyl)-1-phenyl-1H-pyrazole derivatives as potent antioxidants and 15-Lipoxygenase inhibitors” (Journal of Enzyme Inhibition and Medicinal Chemistry, 2020).

A short description of data set [1]: DPPH radical scavenging assay. The conditions noted are these: mean ± SEM of three experiments; 30 min, 517 nm. On the procedure:
The DPPH scavenging activity of all synthesized compounds was measured as previously described by Nahar et al.[48] with some modifications. Briefly, 100 µL of different concentrations of the tested compounds (12.5, 25, 50, 100, and 200 µg/mL) were pipetted into a 96-well plate. Then, 100 µL of 100-µM DPPH methanolic solution were added to each well and the plate was incubated protected from light at room temperature for 30 min. The absorbance of the solution was measured at λ517 nm.[49] Ascorbic acid was used as the positive control while DMSO was the negative control. The percentage of DPPH scavenging activity was calculated according to the following equation: % of DPPH scavenging=[(Acontrol–Asample)/Acontrol] ×100, where Acontrol is the absorbance of the control reaction (with all reagents except the test compound), and Asample is the absorbance of the test sample. […] All tests were performed in triplicates.

A short description of data set [2]: NO scavenging assay (sodium nitroprusside / Griess reagent). The settings on record: mean ± SEM of three experiments; 90 min, 546 nm. Here is the method:
The NO scavenging activity of all synthesized compounds was measured as previously described by Ho et al.[50] Briefly, 50 µL of different concentrations of the tested compounds (12.5, 25, 50,100, and 200 µg/mL) were pipetted into a 96-well plate. Then, 50 µL of 10-mM sodium nitroprussides dissolved in phosphate-buffered saline PBS (pH 7.4) were added to each well and the plate was incubated for 90 min at room temperature. Next, an equal volume of Griess reagent (1% of sulphanilamide and 0.1% of naphthyl ethylene diamine in 2.5% […]) was added to each well to measure the nitrite content. The absorbance of the formed pink-coloured chromophore was measured at λ 546 nm. DMSO and ascorbic acid were used as the negative and positive control, respectively. All tests were performed in triplicate. The percentage of NO scavenging activity was calculated according to the following equation: % of NO scavenging=[(Acontrol−Asample)/Acontrol]×100 where Acontrol is the absorbance of the control reaction (with all reagents except the test compound), and Asample is the absorbance of the test sample.

The nature of data set [3]: Superoxide scavenging assay (pyrogallol autoxidation). The conditions noted are these: mean ± SEM of three experiments; pyrogallol autoxidation, 325 nm. Here is the method:
The improved pyrogallol autoxidation method was used to determine O2^−. RSA of all synthesized compounds as previously described. Briefly, 50 µL of test compounds (12.5, 25, 50,100, and 200 µg/mL) was added to 2900 µl of […] Tris HCl buffer (0.05 M, pH 7.4) containing 1-mM Na2EDTA. Next, 50 µL of 60-mM pyrogallol in1mM HCl had been thoroughly mixed with the mixture. The absorbance of the reaction mixture was measured at A325 nm every 30 s for 5 min. O2^− RSA was expressed by the oxidation degree of a test group in comparison to that of the control. The absorbance at 325 nm was measured against the Tris-HCl buffer every 30 s for 5 min. The percentage of scavenging effect was calculated using the following equation: O2^− radical scavenging %=[(ΔA325, control/T)−(ΔA325nm, sample/T)/ΔA325nm, control/T]×100 where ΔA325 nm, control is the increase in A325 nm of the reaction mixture without the sample and ΔA325 nm, sample is that for the mixture with the sample; T=5 min. The experiments were performed in triplicate.

The compound `O=C(/C=C/c1cn(-c2ccccc2)nc1-c1ccc2ccccc2c1)c1ccccc1` [Compound 2a, 3-(3-Naphthalen-2-yl-1-phenyl-1H-pyrazole-4-yl)-1-phenyl propenone] came in with a melting point of 158 to 159 °C. Also, the “DPPH IC50” value in data set [1] was greater than 200 µg/mL. Besides, the “NO IC50” value in data set [2] is greater than 200 µg/mL. For the same compound, in data set [3], the “Superoxide IC50” value is listed as greater than 200 µg/mL.

The compound `O=C(/C=C/c1cn(-c2ccccc2)nc1-c1ccc2ccccc2c1)c1ccc(Cl)cc1` [Compound 2d, 1-(4-chlorophenyl)-3-(3-naphthalen-2-yl-1-phenyl-1H-pyrazol-4-yl)propenone] showed a melting point of 161 to 162 °C. The “DPPH IC50” value in data set [1] is given as greater than 200 µg/mL. For the same compound, in data set [2], the “NO IC50” value is recorded as greater than 200 µg/mL. Also, the “Superoxide IC50” value in data set [3] was greater than 200 µg/mL.

In turn, `Clc1ccc(C2=NNC(c3cn(-c4ccccc4)nc3-c3ccc4ccccc4c3)C2)cc1` (centres unmarked) [Compound 3d, 5-(4-Chlorophenyl)-3′-naphthalen-2-yl-1′-phenyl-3,4-dihydro-2H,1’H-[3,4′] bipyrazole] came in with a melting point of 190 to 191 °C. Moreover, the “DPPH IC50” value in data set [1] is recorded as greater than 200 µg/mL. The “NO IC50” value in data set [2] was greater than 200 µg/mL. Moreover, in data set [3], the “Superoxide IC50” value was greater than 200 µg/mL.

Regarding `Clc1ccc(C2=NN(c3ccccc3)C(c3cn(-c4ccccc4)nc3-c3ccc4ccccc4c3)C2)cc1` (centres unmarked) [Compound 4d, 5-(4-Chlorophenyl)-3′-naphthalen-2-yl-2,1′-diphenyl-3,4-dihydro-2H,1'H-[3,4′] bipyrazole], the melting point lay within 192 to 193 °C. In data set [1], the “DPPH IC50” value is on record as greater than 200 µg/mL. In data set [2], the “NO IC50” value was greater than 200 µg/mL. Further, the “Superoxide IC50” value in data set [3] is greater than 200 µg/mL.

Compound `Clc1ccc(C2=NOC(c3cn(-c4ccccc4)nc3-c3ccc4ccccc4c3)C2)cc1` (centres unmarked) [Compound 5d, 3-(4-Chlorophenyl)-5-(3-naphthalen-2-yl-1-phenyl-1H-pyrazol-4-yl)-4,5-dihydro isoxazole] had a melting point of 185 to 186 °C. Besides, the “DPPH IC50” value in data set [1] was greater than 200 µg/mL. Also, in data set [2], the “NO IC50” value was greater than 200 µg/mL. For the same compound, the “Superoxide IC50” value in data set [3] is given as greater than 200 µg/mL.
